Measured values reported in patent publication US20240180880A1, “METHODS OF USING EHMT2 INHIBITORS IN TREATING OR PREVENTING BLOOD DISORDERS” (Epizyme, Inc., priority 2017, published 2024).
Like-named read-outs stand apart in the source and are kept apart here.

Test system: 284 cell lines
Test: cells
Conditions: Homo sapiens
Procedure: A screen of 284 cell lines to assess the antiproliferative effect of EHMT2 inhibition was conducted by treating cell lines in 384-well format with a half-log step dilutions of Compound 205 over 10 concentrations with a maximum concentration of 0.1% v/v DMSO. Cells were plated on Day 0 and treated with compound on Day 1. Culture medium was replaced on day 7 and cells redosed. After 10-day incubation, cells were fixed and stained with nuclear dye. Automated fluorescence microscopy was carried out using a Molecular Devices ImageXpress Micro XL high-content imager, and images were collected with a 4× objective. 16-bit TIFF images were acquired and analyzed with MetaXpress 5.1.0.41 software. Cell proliferation was measured by the fluorescence intensity of the incorporated nuclear dye. Cell count IC50 is the test compound concentration at 50% of maximal response of the untreated control.

How did the IC50 (DU-145, read-out: Cell Count IC50, DU145, Prostate) turn out when `CNc1cc(C)nc(Nc2ccc(OC)c(OCCCN3CCCC3)c2)n1` [Compound 205] was run?
Its IC50 is over 10 µM.

And the IC50 (Daoy, read-out: Cell Count IC50, Daoy, Central Nervous System, Medulloblastoma)?
The IC50 was 1 to 10 µM.

What about the IC50 (Daudi, read-out: Cell Count IC50, Daudi, Hematopoietic, Lymphoma) of the same molecule?
The IC50 was 1 to 10 µM.

And the IC50 (Detroit 562, read-out: Cell Count IC50, Detroit 562, Head and Neck)?
Its IC50 is 1 to 10 µM.

And the IC50 (DoTc2-4510, read-out: Cell Count IC50, DoTc2 4510, Female GU, Cervix)?
Its IC50 is 1 to 10 µM.

What about the IC50 (EFM-19, read-out: Cell Count IC50, EFM-19, Breast) of the same molecule?
Its IC50 is over 10 µM.

And the IC50 (FaDu, read-out: Cell Count IC50, FaDu, Head and Neck)?
The IC50 was 1 to 10 µM.

And the IC50 (G292, read-out: Cell Count IC50, G-292, clone A141B1, Bone, Osteosarcoma)?
Its IC50 is over 10 µM.

And the IC50 (G-361, read-out: Cell Count IC50, G-361, Skin, Melanoma)?
The IC50 was 1 to 10 µM.

And the IC50 (G-401, read-out: Cell Count IC50, G-401, Kidney)?
Its IC50 is over 10 µM.

And the IC50 (G-402, read-out: Cell Count IC50, G-402, Kidney)?
The IC50 was 1 to 10 µM.

What about the IC50 (HCT-8, read-out: Cell Count IC50, HCT-8, Colon) of the same molecule?
The IC50 was over 10 µM.

And the IC50 (HCT-15, read-out: Cell Count IC50, HCT-15, Colon)?
The IC50 was over 10 µM.

And the IC50 (HCT-116, read-out: Cell Count IC50, HCT-116, Colon)?
Its IC50 is over 10 µM.

What about the IC50 (HEC-1-A, read-out: Cell Count IC50, HEC-1-A, Female GU, Uterus) of the same molecule?
The IC50 was 1 to 10 µM.

What about the IC50 (HEL 92.1.7, read-out: Cell Count IC50, HEL-92-1-7, Hematopoietic, Leukemia) of the same molecule?
Its IC50 is over 10 µM.

And the IC50 (HMCB, read-out: Cell Count IC50, HMCB, Skin, Melanoma)?
Its IC50 is over 10 µM.

And the IC50 (HPAF-II, read-out: Cell Count IC50, HPAF-II, Pancreas)?
Its IC50 is 1 to 10 µM.

And the IC50 (HT1197, read-out: Cell Count IC50, HT-1197, Bladder)?
The IC50 was 1 to 10 µM.

And the IC50 (HT-29, read-out: Cell Count IC50, HT-29, Colon)?
Its IC50 is 1 to 10 µM.

What about the IC50 (HT-1080, read-out: Cell Count IC50, HT-1080, Soft & Connective Tissue, Sarcoma) of the same molecule?
Its IC50 is over 10 µM.

And the IC50 (HT-1376, read-out: Cell Count IC50, HT1376, Bladder)?
The IC50 was over 10 µM.

What about the IC50 (HeLa, read-out: Cell Count IC50, HeLa, Female GU, Cervix) of the same molecule?
Its IC50 is over 10 µM.

And the IC50 (HepG2, read-out: Cell Count IC50, HepG2, Liver)?
The IC50 was over 10 µM.

And the IC50 (Hs 294T, read-out: Cell Count IC50, Hs 294T, Skin, Melanoma)?
The IC50 was 1 to 10 µM.

And the IC50 (Hs 683, read-out: Cell Count IC50, Hs 683, Central Nervous System, Glioma)?
The IC50 was 1 to 10 µM.

And the IC50 (Hs 695T, read-out: Cell Count IC50, Hs 695T, Skin, Melanoma)?
Its IC50 is 1 to 10 µM.

And the IC50 (Hs746T, read-out: Cell Count IC50, HS 746T, Stomach)?
Its IC50 is over 10 µM.

And the IC50 (Hs-578T, read-out: Cell Count IC50, Hs 578T, Breast)?
Its IC50 is over 10 µM.

And the IC50 (HuCCT-1, read-out: Cell Count IC50, HuCCT1, Liver)?
The IC50 was 1 to 10 µM.

What about the IC50 (HuP-T4, read-out: Cell Count IC50, HuP-T4, Pancreas) of the same molecule?
The IC50 was 1 to 10 µM.

What about the IC50 (HuTu80, read-out: Cell Count IC50, HuTu 80, Duodenum) of the same molecule?
The IC50 was 1 to 10 µM.

What about the IC50 (JEG-3, read-out: Cell Count IC50, JEG-3, Placenta) of the same molecule?
Its IC50 is over 10 µM.

And the IC50 (JIYOYE, read-out: Cell Count IC50, Jiyoye, Hematopoietic, Lymphoma)?
The IC50 was over 10 µM.

What about the IC50 (JeKo-1, read-out: Cell Count IC50, JeKo-1, Hematopoietic, Lymphoma) of the same molecule?
Its IC50 is 1 to 10 µM.

What about the IC50 (Jurkat, read-out: Cell Count IC50, Jurkat, Hematopoietic, Leukemia) of the same molecule?
The IC50 was 1 to 10 µM.

What about the IC50 (K562, read-out: Cell Count IC50, K562, Hematopoietic, Leukemia) of the same molecule?
Its IC50 is 1 to 10 µM.

What about the IC50 (KATO III, read-out: Cell Count IC50, KATO III, Stomach) of the same molecule?
The IC50 was 1 to 10 µM.

And the IC50 (KU812, read-out: Cell Count IC50, KU812, Hematopoietic, Leukemia)?
The IC50 was over 10 µM.

What about the IC50 (LNCaP, read-out: Cell Count IC50, LNCaP, Prostate) of the same molecule?
The IC50 was 0.1 to 1 µM.

And the IC50 (LS174T, read-out: Cell Count IC50, LS-174T, Colon)?
The IC50 was 1 to 10 µM.

And the IC50 (LS-123, read-out: Cell Count IC50, LS123, Colon)?
Its IC50 is 1 to 10 µM.

And the IC50 (LS-411N, read-out: Cell Count IC50, LS411N, Colon)?
The IC50 was 1 to 10 µM.

What about the IC50 (LS-513, read-out: Cell Count IC50, LS513, Colon) of the same molecule?
Its IC50 is 1 to 10 µM.

And the IC50 (LS-1034, read-out: Cell Count IC50, LS1034, Colon)?
The IC50 was over 10 µM.

What about the IC50 (M059J, read-out: Cell Count IC50, M059J, Central Nervous System, Glioma) of the same molecule?
The IC50 was over 10 µM.

What about the IC50 (MC-IXC, read-out: Cell Count IC50, MC-IXC, Central Nervous System, Neuroblastoma) of the same molecule?
The IC50 was over 10 µM.

And the IC50 (MCF7, read-out: Cell Count IC50, MCF7, Breast)?
The IC50 was over 10 µM.

And the IC50 (MDA-MB-231, read-out: Cell Count IC50, MDA MB 231, Breast)?
The IC50 was 1 to 10 µM.

What about the IC50 (MDA-MB-415, read-out: Cell Count IC50, MDA-MB-415, Breast) of the same molecule?
The IC50 was over 10 µM.

What about the IC50 (MDA-MB-436, read-out: Cell Count IC50, MDA-MB-436, Breast) of the same molecule?
Its IC50 is over 10 µM.

And the IC50 (MDA-MB-453, read-out: Cell Count IC50, MDA MB 453, Breast)?
Its IC50 is 1 to 10 µM.

And the IC50 (MDA-MB-468, read-out: Cell Count IC50, MDA MB 468, Breast)?
The IC50 was 1 to 10 µM.

What about the IC50 (ME-180, read-out: Cell Count IC50, ME-180, Female GU, Cervix) of the same molecule?
The IC50 was over 10 µM.

What about the IC50 (MEG-01, read-out: Cell Count IC50, MEG01, Hematopoietic, Leukemia) of the same molecule?
Its IC50 is 1 to 10 µM.

And the IC50 (MES-SA, read-out: Cell Count IC50, MES-SA, Soft & Connective Tissue, Sarcoma)?
The IC50 was 1 to 10 µM.

What about the IC50 (MG-63, read-out: Cell Count IC50, MG-63, Bone, Osteosarcoma) of the same molecule?
Its IC50 is 1 to 10 µM.

What about the IC50 (MHH-PREB-1, read-out: Cell Count IC50, MHH-PREB-1, Hematopoietic, Leukemia) of the same molecule?
Its IC50 is 1 to 10 µM.

What about the IC50 (MIA PaCa-2, read-out: Cell Count IC50, Mia PaCa-2, Pancreas) of the same molecule?
The IC50 was 1 to 10 µM.

And the IC50 (MOLT-3, read-out: Cell Count IC50, MOLT-3, Hematopoietic, Leukemia)?
Its IC50 is 1 to 10 µM.

And the IC50 (MOLT-16, read-out: Cell Count IC50, MOLT-16, Hematopoietic, Leukemia)?
Its IC50 is 1 to 10 µM.

What about the IC50 (MV4-11, read-out: Cell Count IC50, MV-4-11, Hematopoietic, Leukemia) of the same molecule?
Its IC50 is 0.1 to 1 µM.

And the IC50 (Malme-3M, read-out: Cell Count IC50, MALME3M, Skin, Melanoma)?
The IC50 was over 10 µM.

What about the IC50 (MeWo, read-out: Cell Count IC50, MeWo, Skin, Melanoma) of the same molecule?
The IC50 was 1 to 10 µM.

What about the IC50 (NALM-6, read-out: Cell Count IC50, NALM-6, Hematopoietic, Leukemia) of the same molecule?
The IC50 was 1 to 10 µM.

And the IC50 (NCI-H69, read-out: Cell Count IC50, NCI-H69, Lung, SCLC)?
The IC50 was 0.1 to 1 µM.

And the IC50 (NCI-H292, read-out: Cell Count IC50, NCI-H292, Lung, NSCLC)?
Its IC50 is over 10 µM.

What about the IC50 (NCI-H295R, read-out: Cell Count IC50, NCI-H295R, Endocrine, Adrenal gland) of the same molecule?
The IC50 was over 10 µM.

What about the IC50 (NCI-H441, read-out: Cell Count IC50, NCIH441, Lung, NSCLC) of the same molecule?
Its IC50 is over 10 µM.

What about the IC50 (NCI-H446, read-out: Cell Count IC50, NCIH446, Lung, SCLC) of the same molecule?
The IC50 was 1 to 10 µM.

What about the IC50 (NCI-H460, read-out: Cell Count IC50, NCI-H460, Lung, NSCLC) of the same molecule?
The IC50 was over 10 µM.
